Measured values published in patent US20240269158A1, “THERAPEUTIC AGENTS AND METHODS FOR TREATMENT OF BARTONELLOSIS” (THE ADMINISTRATORS OF THE TULANE EDUCATIONAL FUND, priority 2021, published 2024).
Values after ≈ are worked out from the molar mass of the structure shown. Read-outs that look alike come from different tables or passages of the source.

Columns and labels:
[1] = tested on: B. henselae and B. vinsonii; experiment: Live/dead BacLight staining; type: cell-based, Bartonella; details: 10 μg/ml
Procedure: To determine the viability of the bacteria grown in liquid culture media, LIVE/DEAD BacLight™ Bacterial viability kit for microscopy (ThermoFisher, L7012) was used according to the manufacturer's protocol. Briefly, 7-day old liquid culture media was used for the determination of the viability. Initially, bacteria were diluted down to an optical density (OD) of 0.1 using the respective liquid culture media. 1 ml of 0.1 OD bacterial culture was then transferred into a 2 ml microcentrifuge tube and centrifuged at 7000 rpm for 10 min. After removing the supernatant, the pellet was resuspended in 1 ml of 0.85% NaCl and bacteria was pelleted again. After three washes, bacteria were resuspended in 1 ml of 0.85% NaCl and incubated with 1 μl of green-fluorescent nucleic acid dye (SYTO9) and 1 μl of red-fluorescent nucleic acid dye (PI) for 15 minutes. All the incubations were performed at room temperature and in the dark. After 15 minutes of incubation with both the dyes, bacteria were visualized under fluorescence microscopy and images were acquired using Nikon NIS elements software. Later, mean fluorescence intensity of both the SYTO9 and PI was measured using the Nikon elements software. Mean fluorescence values were acquired from a total of 10 images per experimental condition. To obtain dead cell counts, bacteria were treated with 70% isopropanol and incubated for 1 hr, while the sample was mixed for every 15 min and stained as above. Additionally, the entire staining protocol was repeated by staining the bacteria with PI first and then with SYTO9 both on dead and live bacteria and the fluorescence values were recorded accordingly. However, in the staining of therapeutic agent treated bacteria, both the dyes were pre-mixed into 1 ml of sterile-filtered distilled water, as previously described and 10 μl of the mixture was added into each well, incubated and visualized as described above.
Bacteria were stained with the live/dead BacLight™ kit to determine the viability of the bacteria before every experiment. […] Viability was also measured after 96 hours on control, untreated bacteria. […]

[2] = tested on: B. vinsonii; experiment: Cell-free, liquid culture MBC assay; type: cell-based, B. vinsonii subsp. berkhoffii; details: 96 hrs, plated on blood agar
Procedure: The B. henselae strains used were San Antonio 2, 267HO04, a human clinical isolate and B. vinsonii subsp. berkhoffii. Both the bacteria were initially grown on tryptic soy agar (TSA) supplemented with 5% defibrinated sheep blood plates that were either pre-made (Remel, R01198) or homemade, in a humidified atmosphere at 37° C. with 5% CO2 for 7 days. For the preparation of liquid cultures, an individual well-grown colony from the plate was resuspended in 15 ml Falcon tubes containing 3 mL of either Schneider's insect media supplemented with 10% FBS, or Grace's insect media (Gibco, 11605-094) supplemented with 10% FBS, or BAPGM serum-free liquid media. The cultures grew for 7 more days in the atmosphere as above without shaking. The number of viable bacteria was determined by either plating serial dilutions of the culture on plates for CFU or by live/dead staining. Before every experiment, bacteria were mixed well and passed through 22-gauge needle to break large clumps of bacteria.
Briefly, the bacterial culture that was treated with therapeutic agents for 96 hrs was collected into a 1.5 ml microcentrifuge tubes and centrifuged at 7000 rpm for 10 min. The supernatant was removed, and the bacterial pellet was washed with 1×PBS twice. The bacterial pellet was then resuspended in 100 μL of 1×PBS, plated onto blood agar plates and incubated at 37° C. with 5% CO2 for about 14 days. This assay was repeated three times with all the 6 different antibiotics (azlocillin, azithromycin, ceftriaxone, doxycycline, gentamicin and ampicillin) and at different concentrations.
Therapeutic agent stocks were prepared in the following solvents: 10 mg/ml of ceftriaxone (USP), doxycycline (Fisher scientific, D9891-1G), gentamicin (Fisher scientific, 1405-41-0), ampicillin (Fisher scientific, 69-52-3) and azlocillin (Flightpath) in sterile cell culture grade water, whereas 5 mg/ml of azithromycin (Sigma, PZ0007-5MG) was dissolved in sterile cell culture grade DMSO. Antibiotics were then aliquoted and stored at either −80° C. or −20° C. until further use. On the day of assay, these stock concentrations were diluted to 1 mg/ml and 100 μg/ml in the respected bacterial culture media for MIC and cell-free, liquid culture MBC assays. For the DH82 cell-based MBC assay, antibiotics were diluted in EMEM media supplemented with 15% heat inactivated FBS.
For this assay, both B. henselae and B. vinsonii were grown in Grace's insect media and were tested against all of the 6 antibiotics (ceftriaxone, doxycycline, gentamicin, azithromycin, azlocillin, ampicillin). […] However, ceftriaxone, gentamicin, azithromycin, and azlocillin were all bactericidal and completely eliminated the growth at concentrations below 10 µg/ml. Table 2 provides comparison of MBCs for B. henselae and B. vinsonii strains in cell-free liquid culture medium determined by incubating the bacteria with antibiotics in a 96-well plate and plating on tryptic soy agar supplemented with 5% sheep blood. Additionally, MBC for B. henselae determined by DH82 cell-based assay (right column) is provided.

Row | Molecule | live/dead staining signal of treated bacteria [1] | MBC ([2]; read-out: MBC) [µg/mL] | MBC [2] [µg/mL]
1 | CC[C@H]1OC(=O)[C@H](C)[C@@H](O[C@H]2C[C@@](C)(OC)[C@@H](O)[C@H](C)O2)[C@H](C)[C@@H](O[C@@H]2O[C@H](C)C[C@H](N(C)C)[C@H]2O)[C@](C)(O)C[C@@H](C)CN(C)[C@H](C)[C@@H](O)[C@]1(C)O [Azithromycin, azithromycin] | showed only SYTO9 signal | 2 to 5 (≈ 2.67 to 6.68 µM) | 
2 | CC1(C)S[C@@H]2[C@H](NC(=O)[C@H](NC(=O)N3CCNC3=O)c3ccccc3)C(=O)N2[C@H]1C(=O)O [Azlocillin, azlocillin] | showed only SYTO9 signal | 0.25 to 0.5 (≈ 0.542 to 1.08 µM) | 
3 | CO/N=C(\C(=O)N[C@@H]1C(=O)N2C(C(=O)O)=C(CSc3nc(=O)c(=O)[nH]n3C)CS[C@H]12)c1csc(N)n1 [Ceftriaxone, ceftriaxone] | showed only SYTO9 signal | 0.5 to 1 (≈ 0.902 to 1.8 µM) | 
4 | gentamicin |  |  | 4.0 to 8.0
